Data reported in patent US20250214966A1, “Crystalline Salt Form Of A SHP2 Inhibitor” (Array BioPharma Inc., priority 2022, published 2025).
Counter-ions that a name gives are not always drawn. Like-named read-outs stand apart in the source and are kept apart here.

What was measured:
Assay type in all cases: physicochemical
[1] = Solubility in buffers, HPLC of mother liquors (Tables 12 and 13); settings: for solubility at 25 h: 25 °C, thermodynamic from solid, read-out: Solubility Concentration
Procedure: Upon addition of the buffer solutions, the samples were vortexed. The samples were rotated at 40° C. for 8 hours, 15° C. for 5 hours, and 25° C. for 12 hours in an Envirogenie thermomixer. After the thermomixing cycle, the slurries were isolated by centrifugation filtration and the isolated mother liquors were analyzed by HPLC.
(§1) HPLC method (Tables 12 and 13): An Agilent 1290 UPLC instrument was used with a Waters XSelect HSS T3 Column (100 angstrom, 4.6×150 mm, 5 μm). The column temperature was set to 20° C., the UV wavelength set to 254 nm, the injection volume was 10 μL, with a flow rate of 1.0 mL/min. 10 mM Ammonium acetate adjusted to pH 4.8 was used as a mobile phase A, and acetonitrile was used as mobile phase B. The gradient method was set up to achieve 15% mobile phase B at 0 minutes, 95% mobile phase B at 17 minutes—held until 22 minutes, 15% mobile phase B at 22.1 minutes—held until 28 minutes.

[2] = Dynamic vapor sorption of salts (Table 14); settings: 25° C.
Procedure: DVS (Table 14): Approximately, 10-20 mg of sample was placed into a mesh vapor sorption balance pan and loaded into a DVS Intrinsic dynamic vapor sorption balance by Surface Measurement Systems. The sample was subjected to a ramping profile from 40-90% relative humidity (RH) at 10% increments, maintaining the sample at each step until a stable weight had been achieved (dm/dt 0.004%, minimum step length 30 minutes, maximum step length 500 minutes) at 25° C. After completion of the sorption cycle, the sample was dried using the same procedure to 0% RH and then a second sorption cycle back to 40% RH. Two cycles were performed. Theweight change during the sorption/desorption cycles were plotted, allowing for the hygroscopic nature of the sample to be determined. XRPD analysis was then carried out on any solid retained. […] The sample was subjected to a ramping profile from 40-90% relative humidity (RH) at 10% increments, maintaining the sample at each step until a stable weight had been achieved (dm/dt 0.004%, minimum step length 30 minutes, maximum step length 500 minutes) at 25° C. After completion of the sorption cycle, the sample was dried using the same procedure to 0% RH and then a second sorption cycle back to 40% RH. Two cycles were performed. The weight change during the sorption/desorption cycles were plotted, allowing for the hygroscopic nature of the sample to be determined. XRPD analysis was then carried out on any solid retained.

[3] = TGA/DSC of salts (Table 14); settings: 10° C./min
Procedure: TGA/DSC (Table 14): Approximately, 5-10 mg of material was added into a pre-tared open aluminum pan and loaded into a TA Instruments Discovery SDT 650 Auto—Simultaneous DSC and held at room temperature. The sample was then heated at a rate of 10° C./min from 20° C. (ambient) to 400° C. during which time the change in sample weight was recorded along with the heat flow response (DSC). Nitrogen was used as the sample purge gas, at a flow rate of 200 cm3/min.
DSC (Table 14): Approximately, 1-5 mg of material was weighed into an aluminum DSC pan and sealed nonhermetically with an aluminum lid. The sample pan was then loaded into a TA Instruments Discovery DSC 2500 differential scanning calorimeter equipped with a RC90 cooler. The sample and reference were heated to 310° C. at a scan rate of 10° C./min and the resulting heat flow response monitored. The sample was re-cooled to 20° C. and then reheated again to 205° C. all at 10° C./min. Nitrogen was used as the purge gas, at a flow rate of 50 cm^3/min.

[4] = Solubility of salts in buffer systems at 37° C. (Table 14); settings: thermodynamic from solid, 20 mg in 1 mL
Procedure: The solubility (Table 14) was determined by adding 20 mg of salts (Examples 3 to 8) into 3 HPLC vials, to each vial, a magnetic stirrer bar was added along with 1 mL of the appropriate buffer system (pH 1.2 HCl, pH 4.5 sodium acetate, or pH 6.8 phosphate). The samples were agitated at 37° C. for […]. After 24 hours, the slurries were isolated by centrifugation filtration and isolated mother liquors were analyzed by HPLC.
as §1, with “(Table 14): A Dionex Ultimate 3000 HPLC” for “(Tables 12 and 13): An Agilent 1290 UPLC”, “ammonium” for “Ammonium”

For `Nc1nccc(Sc2cnc(N3CCC4(CC3)Cc3ccccc3[C@H]4N)nn2)c1Cl.Nc1nccc(Sc2cnc(N3CCC4(CC3)Cc3ccccc3[C@H]4N)nn2)c1Cl.O` [Example 2, (S)-1′-(6-((2-amino-3-chloropyridin-4-yl)thio)-1,2,4-triazin-3-yl)-1,3-dihydrospiro[indene-2,4′-piperidin]-1-amine Free Base Hemihydrate (Form 1)], the “Solubility Concentration” value ([1]; Water, Final pH 9.19, Final XRD Additional peak at 8°) was 0.24 µg/mL, the “Solubility Concentration” value ([1]; pH 3, Final pH 4.51, Final XRD Freebase Form 1) was 2044.85 µg/mL and the “Solubility Concentration” value ([1]; pH 4, Final pH 5.12, Final XRD Freebase Form 1) was 301.79 µg/mL. For the same compound, the “Solubility Concentration” value ([1]; pH 5, Final pH 6.06, Final XRD Freebase Form 1) was 58.53 µg/mL, the “Solubility Concentration” value ([1]; pH 6, Final pH 6.95, Final XRD Freebase Form 1) was 32.25 µg/mL and the “Solubility Concentration” value ([1]; pH 7, Final pH 8.19, Final XRD Freebase Form 1) was 10.05 µg/mL. For the same compound, the “Solubility Concentration” value ([1]; pH 8, Final pH 9.13, Final XRD Insufficient solids) was 0.56 µg/mL, the “Solubility Concentration” value ([1]; pH 9, Final pH 10.2, Final XRD Insufficient solids) was 0.26 µg/mL and the “Solubility Concentration” value ([1]; pH 10, Final pH 3.94, Final XRD Insufficient solids) was 0.45 µg/mL.
For `Nc1nccc(Sc2cnc(N3CCC4(CC3)Cc3ccccc3[C@H]4N)nn2)c1Cl` [Example 3, (S)-1′-(6-((2-amino-3-chloropyridin-4-yl)thio)-1,2,4-triazin-3-yl)-1,3-dihydrospiro[indene-2,4′-piperidin]-1-amine Mono Succinate Salt Form 1], the solubility at 25 h ([1]; Water, Final pH 5.01, Final XRD Succinate Form 1) was 8180 µg/mL, the solubility at 25 h ([1]; pH 3 buffer, aqueous buffer, pH 3, Final pH 4.5, Final XRD Succinate Form 1) was 4220 µg/mL and the solubility at 25 h ([1]; pH 4 acetate buffer, aqueous buffer, pH 4, Final pH 4.16, Final XRD Insufficient solids) was 6400 µg/mL. For the same compound, the solubility at 25 h ([1]; pH 5 buffer, aqueous buffer, pH 5, Final pH 5.08, Final XRD Succinate Form 1) was 4440 µg/mL, the solubility at 25 h ([1]; pH 6 phosphate buffer, aqueous buffer, pH 6, Final pH 5.37, Final XRD Freebase Form 1) was 597 µg/mL and the solubility at 25 h ([1]; pH 7 buffer, aqueous buffer, pH 7, Final pH 6.81, Final XRD Insufficient solids) was 17.1 µg/mL. For the same compound, the solubility at 25 h ([1]; pH 8 buffer, aqueous buffer, pH 8, Final pH 7.78, Final XRD Freebase Form 1) was 2.66 µg/mL, the solubility at 25 h ([1]; pH 9 buffer, aqueous buffer, pH 9, Final pH 9.01, Final XRD Freebase Form 1) was 0.18 µg/mL and the solubility at 25 h ([1]; pH 10 buffer, aqueous buffer, pH 10, Final pH 9.82, Final XRD Freebase Form 1) was 0.17 µg/mL. The DVS hygroscopic nature [2] was “Slightly”, the “DVS Wt.” value ([2]; up to 70% RH, possible hydration above 70% RH) was “hygroscopic 0.7%” and the “TGA/DSC Melt/degradation” value [3] was 197.3 °C. It also gave a solubility at 18 h ([4]; pH 1.2 HCl buffer, simulated gastric fluid, pH 1.2 HCl, read-out: Solubility pH 1.2 HCl) of over 20000 µg/mL, a solubility at 18 h ([4]; pH 4.5 sodium acetate buffer, aqueous buffer, pH 4.5 sodium acetate, read-out: Solubility pH 4.5 Sodium Acetate) of 200 µg/mL and a solubility at 18 h ([4]; pH 6.8 phosphate buffer, aqueous buffer, pH 6.8 phosphate, read-out: Solubility Ph 6.8 Phosphate) of 1300 µg/mL.
